Among the data in PubChem BioAssay AID248 (DTP/NCI, 2004) are T/C values, retold here.

Several values for one entry are separate records, joined by “and”; a condition that tells them apart may be missing. Equal entries are not always repeated. Inconclusive results and toxic doses are left out.

The assay has as its system L1210 leukemia ip in BDF1 mice, survival T/C. The experiment in a line: NCI In Vivo Anticancer Drug Screen. Data for tumor model L1210 Leukemia (intraperitoneal) in B6D2F1 (BDF1) mice. The conditions noted are these: endpoint: mean survival time, higher = longer survival. In short, it runs like this: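 Survival endpoint. Drug-treated group vs vehicle group, expressed as T divided by C. Tumor passaged by transplantation.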

Setting [1] is: dose: 100.0 mg/kg/injection, schedule: Q01DX001 (ip), vehicle: carboxymethylcellulose (CMC).
[2] abbreviates: dose: 100.0 mg/kg/injection, schedule: Q04DX003 (ip), vehicle: saline.
The mark [3] stands for this setting: dose: 100.0 mg/kg/injection, schedule: Q04DX003 (ip), vehicle: Klucel (hydroxypropylcellulose) (HPC).
Where [4] appears, read: dose: 200.0 mg/kg/injection, schedule: Q04DX003 (ip), vehicle: Klucel (hydroxypropylcellulose) (HPC).
The mark [5] stands for this setting: dose: 400.0 mg/kg/injection, schedule: Q04DX003 (ip), vehicle: Klucel (hydroxypropylcellulose) (HPC).
Setting [6] is: dose: 100.0 mg/kg/injection, schedule: Q01DX001 (ip), vehicle: other.
[7] abbreviates: dose: 100.0 mg/kg/injection, schedule: Q04DX003 (ip), vehicle: other.
Setting [8] is: dose: 200.0 mg/kg/injection, schedule: Q01DX001 (ip), vehicle: other.
[9] abbreviates: dose: 200.0 mg/kg/injection, schedule: Q04DX003 (ip), vehicle: other.
The mark [10] stands for this setting: dose: 400.0 mg/kg/injection, schedule: Q01DX001 (ip), vehicle: other.
Where [11] appears, read: dose: 400.0 mg/kg/injection, schedule: Q04DX003 (ip), vehicle: other.

Consider `O=NN(CCCl)C(=O)Nc1ccc(Br)cn1`, for which the T/C (dose: 3.0 mg/kg/injection, schedule: Q01DX009 (ip), vehicle: carboxymethylcellulose (CMC)) was 97 % of control; the T/C (dose: 6.0 mg/kg/injection, schedule: Q01DX009 (ip), vehicle: carboxymethylcellulose (CMC)) is 103 % of control; the T/C (dose: 10.0 mg/kg/injection, schedule: Q01DX009 (ip), vehicle: carboxymethylcellulose (CMC)) is 186 % of control; the T/C (dose: 12.0 mg/kg/injection, schedule: Q01DX009 (ip), vehicle: carboxymethylcellulose (CMC)) was 119 % of control; the T/C (dose: 15.0 mg/kg/injection, schedule: Q01DX009 (ip), vehicle: carboxymethylcellulose (CMC)) is 154 % of control; the T/C (dose: 22.5 mg/kg/injection, schedule: Q01DX009 (ip), vehicle: carboxymethylcellulose (CMC)) is 158 % of control. Also, the T/C is 157 % of control (dose: 29.0 mg/kg/injection, schedule: Q01DX009 (ip), vehicle: carboxymethylcellulose (CMC)); 151 % of control (dose: 66.0 mg/kg/injection, schedule: Q01DX001 (ip), vehicle: carboxymethylcellulose (CMC)); 150 % of control and 173 % of control under setting [1]; 102 % of control and 109 % of control (dose: 150.0 mg/kg/injection, schedule: Q01DX001 (ip), vehicle: carboxymethylcellulose (CMC)).
On to `CC[NH-].CC[NH-].[I][Pt+2][I]`, for which the T/C reads like this: (dose: 12.5 mg/kg/injection, schedule: Q04DX003 (ip), vehicle: saline) 106 % of control; (dose: 25.0 mg/kg/injection, schedule: Q01DX009 (ip), vehicle: saline) 109 % of control; (dose: 25.0 mg/kg/injection, schedule: Q04DX003 (ip), vehicle: saline) 101 % of control; (dose: 50.0 mg/kg/injection, schedule: Q01DX009 (ip), vehicle: saline) 105 % of control; (dose: 50.0 mg/kg/injection, schedule: Q04DX003 (ip), vehicle: saline) 101 % of control; under setting [2], 110 % of control.
Consider `O=C(Nc1cc(C(F)(F)F)ccc1Cl)C(=O)Nc1cc(C(F)(F)F)ccc1Cl`, for which the T/C runs as follows: (dose: 100.0 mg/kg/injection, schedule: Q01DX009 (ip), vehicle: gum acacia) 88 % of control; (dose: 200.0 mg/kg/injection, schedule: Q01DX009 (ip), vehicle: gum acacia) 93 % of control; (dose: 400.0 mg/kg/injection, schedule: Q01DX009 (ip), vehicle: gum acacia) 93 % of control.
In the case of `COC1OC2COC(c3ccccc3)OC2C(NC(C)=O)C1OC(C)=O` (stereo unspecified), the T/C under setting [2] is 98 % of control; the T/C (dose: 200.0 mg/kg/injection, schedule: Q04DX003 (ip), vehicle: saline) is 97 % of control; the T/C (dose: 400.0 mg/kg/injection, schedule: Q04DX003 (ip), vehicle: saline) was 101 % of control.
As for `Cc1ccc(NCS(=O)(=O)O)cc1`, the T/C is, setting by setting: (dose: 25.0 mg/kg/injection, schedule: Q04DX003 (ip), vehicle: Klucel (hydroxypropylcellulose) (HPC)) 106 % of control; (dose: 50.0 mg/kg/injection, schedule: Q04DX003 (ip), vehicle: Klucel (hydroxypropylcellulose) (HPC)) 103 % of control; under setting [3], 95 % of control and 96 % of control; under setting [4], 100 % of control; under setting [5], 97 % of control.
Consider `O=C(COc1c(Cl)cc(Cl)cc1Cl)Nc1cccnc1`, for which the T/C reads like this: (dose: 100.0 mg/kg/injection, schedule: Q01DX001 (ip), vehicle: Klucel (hydroxypropylcellulose) (HPC)) 100 % of control; (dose: 200.0 mg/kg/injection, schedule: Q01DX001 (ip), vehicle: Klucel (hydroxypropylcellulose) (HPC)) 100 % of control; (dose: 400.0 mg/kg/injection, schedule: Q01DX001 (ip), vehicle: Klucel (hydroxypropylcellulose) (HPC)) 107 % of control.
For `CC(=O)C1(C(C)=O)C(c2cccc([N+](=O)[O-])c2)C1(c1ccccc1)[N+](=O)[O-]` (stereo unspecified), the T/C reads like this: under setting [6], 95 % of control; (dose: 100.0 mg/kg/injection, schedule: Q01DX009 (ip), vehicle: saline with Tween-80) 94 % of control; under setting [7], 92 % of control; under setting [8], 93 % of control; (dose: 200.0 mg/kg/injection, schedule: Q01DX009 (ip), vehicle: saline with Tween-80) 102 % of control; under setting [9], 92 % of control. Also, the T/C by setting is: under setting [10], 95 % of control; (dose: 400.0 mg/kg/injection, schedule: Q01DX009 (ip), vehicle: saline with Tween-80) 96 % of control; under setting [11], 97 % of control.
In the case of `COc1cc([N+](=O)[O-])ccc1NC(=O)Nc1cc(Cl)c(Cl)cc1C`, the T/C is 94 % of control (dose: 100.0 mg/kg/injection, schedule: Q01DX009 (ip), vehicle: Klucel (hydroxypropylcellulose) (HPC)); 105 % of control (dose: 200.0 mg/kg/injection, schedule: Q01DX009 (ip), vehicle: Klucel (hydroxypropylcellulose) (HPC)); 91 % of control (dose: 400.0 mg/kg/injection, schedule: Q01DX009 (ip), vehicle: Klucel (hydroxypropylcellulose) (HPC)).
For `OC(c1ccccc1)(c1ccccc1)c1cccnc1`, the T/C runs as follows: (dose: 75.0 mg/kg/injection, schedule: Q04DX002 (ip), vehicle: saline) 105 % of control; (dose: 150.0 mg/kg/injection, schedule: Q04DX002 (ip), vehicle: saline) 93 % of control.
Regarding `O=C(Nc1ccc(Cl)c(Cl)c1)OCCN(c1ccccc1)c1ccccc1`, the T/C was 88 % of control under setting [1]; 97 % of control (dose: 200.0 mg/kg/injection, schedule: Q01DX001 (ip), vehicle: carboxymethylcellulose (CMC)); 92 % of control (dose: 400.0 mg/kg/injection, schedule: Q01DX001 (ip), vehicle: carboxymethylcellulose (CMC)).
`CN(C)N=Nc1cccnc1`: the T/C is, setting by setting: (dose: 8.0 mg/kg/injection, schedule: Q01DX009 (ip), vehicle: saline) 97 % of control; (dose: 9.5 mg/kg/injection, schedule: Q01DX001 (ip), vehicle: saline) 106 % of control; (dose: 14.0 mg/kg/injection, schedule: Q01DX009 (ip), vehicle: saline) 103 % of control; (dose: 19.0 mg/kg/injection, schedule: Q01DX001 (ip), vehicle: saline) 106 % of control; (dose: 23.0 mg/kg/injection, schedule: Q01DX009 (ip), vehicle: saline) 108 % of control; (dose: 38.0 mg/kg/injection, schedule: Q01DX001 (ip), vehicle: saline) 117 % of control. For the same compound, the T/C is, setting by setting: (dose: 57.0 mg/kg/injection, schedule: Q01DX009 (ip), vehicle: saline) 150 % of control; (dose: 86.0 mg/kg/injection, schedule: Q01DX009 (ip), vehicle: saline) 162 % of control.
For the compound `Cc1cc(Cl)c(Cl)cc1NC(=O)c1ccccc1F`, the T/C is 94 % of control under setting [6]; 107 % of control and 92 % of control (dose: 100.0 mg/kg/injection, schedule: Q01DX009 (ip), vehicle: other); 98 % of control and 102 % of control (dose: 100.0 mg/kg/injection, schedule: Q04DX002 (ip), vehicle: other); 98 % of control under setting [7]; 92 % of control under setting [8]; 90 % of control and 92 % of control (dose: 200.0 mg/kg/injection, schedule: Q01DX009 (ip), vehicle: other). The T/C reads like this: (dose: 200.0 mg/kg/injection, schedule: Q04DX002 (ip), vehicle: other) 105 % of control and 91 % of control; under setting [9], 100 % of control; under setting [10], 91 % of control; (dose: 400.0 mg/kg/injection, schedule: Q01DX009 (ip), vehicle: other) 90 % of control and 92 % of control; (dose: 400.0 mg/kg/injection, schedule: Q04DX002 (ip), vehicle: other) 100 % of control and 102 % of control; under setting [11], 96 % of control.
With `CC(N)C(=O)NC(C(=O)O)C(C)C` (stereo unspecified), the T/C is 101 % of control and 98 % of control (dose: 100.0 mg/kg/injection, schedule: Q04DX002 (ip), vehicle: saline); 101 % of control and 95 % of control (dose: 200.0 mg/kg/injection, schedule: Q04DX002 (ip), vehicle: saline); 96 % of control and 95 % of control (dose: 400.0 mg/kg/injection, schedule: Q04DX002 (ip), vehicle: saline).
Turning to `COc1ccc2c(c1)CC(CN1CCC3(CC1)C(=O)N(C)CN3c1ccccc1)O2` (stereo unspecified), the T/C (dose: 75.0 mg/kg/injection, schedule: Q04DX003 (ip), vehicle: Klucel (hydroxypropylcellulose) (HPC)) is 101 % of control; the T/C (dose: 150.0 mg/kg/injection, schedule: Q04DX003 (ip), vehicle: Klucel (hydroxypropylcellulose) (HPC)) was 107 % of control; the T/C (dose: 300.0 mg/kg/injection, schedule: Q04DX003 (ip), vehicle: Klucel (hydroxypropylcellulose) (HPC)) is 95 % of control.
`CC(=O)NOCc1ccc(Cl)cc1`: the T/C is, setting by setting: under setting [3], 100 % of control; under setting [4], 95 % of control; under setting [5], 95 % of control.
